Reference: article PMC8573827, “Zinc protoporphyrin binding to telomerase complexes and inhibition of telomerase activity” (Pharmacology Research & Perspectives, 2021)

Key:
[1] = tested on: Huh7 cells; experiment: Annexin V apoptosis assay, Huh7; type: cell-based, human; details: Huh7, 10 µM, 48 h
Description: (§1) For detection of MPP apoptotic effects, cells were treated with MPPs (0, 2.5, 5 and 10 µM) for 48 h and assayed using PE Annexin V Apoptosis Detection Kit (Cat. No. 559763, BD Biosciences) as recommended by the manufacturer.

[2] = tested on: Huh7 cells; experiment: DNA synthesis, 3H-thymidine incorporation, Huh7; type: cell-based, human; details: Huh7, 10 µM MPP, 24–72 h
Description: (§2) Semi‐quantitative differences in DNA synthesis were determined by measuring ^3H‐thymidine uptake into whole cells in log phase growth. At indicated time points, cell cultures were washed with serum‐free, thymidine deficient medium, then incubated with fresh medium containing 1 μCi/ml of ^3H‐thymidine for two hours at 37°C. Cultures were washed twice with PBS while attached to dishes, then lysed with 0.5 M NaOH and the relative amount of ^3H‐thymidine quantified by scintillation counting.

[3] = tested on: Hek293 cells; experiment: Annexin V apoptosis assay, Hek293; type: cell-based, human; details: Hek293, 10 µM, 48 h
Description: as §1

[4] = tested on: U2OS cells; experiment: MTT cell proliferation/viability assay, telomerase negative U2OS; type: cell-based, human; details: 48 h
Description: (§3) MPPs were tested for effects on cell proliferation and viability using MTT (3‐(4,5‐dimethylthiazol‐2‐yl)‐2,5‐diphenyltetrazolium bromide) dye conversion assay (Cell Titer 96, Promega) as we described[22] with some modifications. Cells were plated into 96 well plates and allowed to attach overnight. MPPs were added to the cultures and then incubated for the times indicated. At assay time, MTT reagent was added and absorbance measured at 570 nm. Controls included buffer blanks containing MPP because of background absorbances reported for MPPs by us[22] and others.[23] The formula used for determination of viable cells relative to controls was: %viablecells=(abssample‐absblank)/(absconrtrol‐absblank)×100

[5] = tested on: U2OS cells; experiment: Annexin V apoptosis assay, U2OS; type: cell-based, human; details: 48 h
Description: as §1

[6] = tested on: TERT transfected U2OS cells; experiment: MTT viability assay in U2OS cells transfected with human TERT; type: cell-based; details: U2OS transfected with pCI neo-hEST2, ZnPP 48 h
Description: Lipofectamine^T ^M 2000 (ThermoFisher) was used for all transfections and closely followed the manufacturer's protocol. For TERT overexpression the catalytically active TERT plasmid pCI neo‐hEST2, a gift from Dr. Robert Weinberg (Addgene plasmid # 1781)[19] was used. Telomerase RNA component (TERC) plasmid (pBS U3‐hTR‐500) was also obtained from Addgene (plasmid # 28170), a gift from Dr. Kathleen Collins.[20], [21]
as §3

[7] = tested on: high molecular weight complexes containing telomerase; experiment: Fluorescent labelling of cellular lysate complexes on non-denaturing 0.8% agarose gels; type: binding, human; details: Huh7 lysates, fluorescence visualization
Description: 0.8% Agarose gels were run in Tris‐Borate‐EDTA buffer using standard slab gels as described for high molecular weight complexes.[27] Cell lysates were produced by lysing Hek293 and Huh7 cells in NP40 buffer (25 mM HEPES‐KOH, 150 mM KCl, 1.5mM MgCl2, 10% glycerol, 0.5% NP40, 5 mM 2ME, pH 7.5 supplemented with protease inhibitors) for 30 min on ice. Extracts were clarified by centrifugation for 16 000 g for 10 min. The protein concentration was determined by Bradford assay. The indicated amounts of proteins were treated with different amounts of ZnPP for 2 h on ice, and then separated on 0.8% Agarose gels prepared with 0.5xTris‐Borate‐EDTA (TBE) buffer. The gels were run at 100 V for 2 h at 4 °C in 0.5x TBE buffer. […] No antibody and normal rabbit IgG (sc‐2027, Santa Cruz Biotechnology) were included as controls. The IP products were treated with ZnPP and electrophoresed as above. Free ZnPP and ZnPP bound to large complexes were visualized using a wide‐wavelength UV lightbox or with red fluorescence using excitation (EX) 608–632 nm and emission (EM) 675–720 nm. Thyroglobulin (670 kD), a heavy MW marker, was run in parallel lanes and visualized with Coomassie Blue staining or fluorescence to size the complexes. In some cases, cell lysates or IP were incubated with RNase A (Life Technologies, NY); or DNase 1 (Qiagen, CA) 100 µg/ml for 1 h at 4 °C prior to electrophoresis.

[8] = tested on: Hek293 cells; experiment: MTT cell proliferation/viability assay, Hek293; type: cell-based, human; details: Hek293, 10 µM MPP, 48 h
Description: as §3

[9] = tested on: Hek293 cells; experiment: DNA synthesis, 3H-thymidine incorporation, Hek293; type: cell-based, human; details: Hek293, 10 µM MPP, 24–72 h
Description: as §2

[10] = target: T1, Taq DNA polymerase (Thermus aquaticus, UniProt P19821); experiment: Taq polymerase inhibition test, MPP added after the telomerase extension step of TRAP; type: biochemical; details: TRAP, MPP added for the amplification steps only
T1 construct: purchased Perkin‐Elmer Cetus, Norwalk, CT
T1 sequence (P19821 whole entry): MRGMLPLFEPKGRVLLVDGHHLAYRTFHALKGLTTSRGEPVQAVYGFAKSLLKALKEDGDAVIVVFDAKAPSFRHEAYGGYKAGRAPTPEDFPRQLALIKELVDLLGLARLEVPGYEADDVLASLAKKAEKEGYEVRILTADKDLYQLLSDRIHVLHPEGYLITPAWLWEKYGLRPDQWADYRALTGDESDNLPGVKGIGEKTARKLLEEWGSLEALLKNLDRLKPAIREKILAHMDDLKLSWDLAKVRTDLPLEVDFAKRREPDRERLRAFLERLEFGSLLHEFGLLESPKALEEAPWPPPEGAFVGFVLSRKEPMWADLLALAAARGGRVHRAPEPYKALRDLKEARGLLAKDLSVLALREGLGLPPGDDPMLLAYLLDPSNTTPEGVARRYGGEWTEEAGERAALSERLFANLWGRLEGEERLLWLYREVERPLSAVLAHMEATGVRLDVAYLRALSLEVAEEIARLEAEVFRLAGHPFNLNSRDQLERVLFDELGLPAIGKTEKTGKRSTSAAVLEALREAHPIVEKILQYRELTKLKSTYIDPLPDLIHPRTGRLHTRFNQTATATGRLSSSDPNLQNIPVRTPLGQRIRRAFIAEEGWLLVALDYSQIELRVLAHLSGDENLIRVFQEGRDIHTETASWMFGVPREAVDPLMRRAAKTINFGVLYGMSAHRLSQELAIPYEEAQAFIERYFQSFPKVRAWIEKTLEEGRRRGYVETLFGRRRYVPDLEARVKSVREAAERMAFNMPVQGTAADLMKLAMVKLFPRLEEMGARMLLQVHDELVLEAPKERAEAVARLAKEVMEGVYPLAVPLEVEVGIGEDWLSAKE
Description: For TRAP assay, a Quantitative Telomerase Detection Kit (US Biomax, Inc) was used to assay cellular lysates or TERT immunoprecipitates (IP) according to the manufacturer's directions. Relative telomerase activity was derived from a standard curve of reference samples and data were analyzed using relative fluorescence units as compared to controls. In some cases, telomerase reaction products were visualized and quantified with TRAPeze system (EMD/Millipore). After separation of the DNA products using 10% non‐denaturing PAGE and SYBR fluorescence labeling [1x SYBR safe DNA gel stain (Invitrogen)], gel bands were imaged with iBright 1500 (Invitrogen). The intensity of the sample's TRAP ladder and internal control was first measured using GelAnalyzer [GelAnalyzer 19.1 (www.gelanalyzer.com )] as recommended. Then, the relative telomerase activity was determined by the ratio of the intensity of the sample's TRAP ladder (telomerase products, TP) to that of the internal control (IC) band.
Because of concerns that some quadruplex ligands inhibit Taq DNA polymerase in addition to telomerase, we assayed MPP inhibition at both steps of the TRAP procedure with a strategy similar to that of others.[36] Using equivalent extracts but separate assays, MPP was either included in the telomerase RT extension step or the extension step was conducted without MPP and then MPP added only for the amplification steps with Taq DNA polymerase. To avoid further potential errors introduced by Real‐time quantification, TRAP products were labeled with SYBR green, visualized on denaturing gels, and each lane was quantified by density measurements as described in the Methods. The latter step also ruled out the possibility that decreases in activity were artifactual due to fluorescence signal quenching by some MPPs.[37] […] All three MPPs had minimal effects on Taq polymerase […] and the slight inhibition of Taq polymerase seen for ZnPP was not directly concentration‐dependent.
Enzymatic extracts were prepared from semi-confluent Huh7 cells and aliquots were assayed in triplicate using TRAP assay. CoPP was added to RT-PCR reactions either before or after the RT telomere elongation step to test whether it inhibited Taq polymerase. Visualization of amplified telomeric products was on 12% denaturing gels using SYBR fluorescence labelling (upper panels). Quantification was with densitometry as described in Methods and plot shown (lower panel). Plotted points represent the mean +/- SD with n =3. (IC)= internal Taq polymerase control.

[11] = tested on: Huh7 cells; experiment: MTT cell proliferation/viability assay, Huh7; type: cell-based, human; details: Huh7, 10 µM MPP, 48 h
Description: as §3

[12] = tested on: TERT, β-catenin, and cyclin D1 expression; experiment: Western blot of proliferative proteins in Huh7 cells; type: cell-based, human; details: Huh7, 48 h
Description: For SDS ‐PAGE, cellular lysates, and protein preparations such as IP were dissolved in Laemmli buffer, boiled for 1 min and separated on denaturing SDS gels as described.[28] After electrophoretic transfer of separated proteins to nitrocellulose sheets, western blot immunoassays employed enhanced chemiluminescence for signal detection (ECL^TM Prime, Amersham).[28]

C=CC1=C(C)c2cc3[n-]c(cc4nc(cc5[n-]c(cc1n2)c(C)c5C=C)C(C)=C4CCC(=O)O)c(CCC(=O)O)c3C.[Zn+2] [ZnPP, zinc protoporphyrin]
Apoptosis [1]: ~50% | Effect on DNA synthesis (3H-thymidine incorporation) [2]: severely attenuated DNA synthesis | Apoptosis [3]: ~50% | Effect on proliferation in telomerase negative cells [4]: only minor effects on proliferation | Effect on apoptosis in telomerase negative cells [5]: failed to have an increased effect on apoptosis | Sensitivity of viability after TERT transfection [6]: restored ZnPP sensitivity | Labelling/binding of cellular complexes on agarose gels [7]: bound to high molecular weight complexes in a concentration dependent manner | Depression of cellular proliferation relative to vehicle only controls [8]: greater than 50% | Effect on DNA synthesis (3H-thymidine incorporation) [9]: severely attenuated DNA synthesis | Effect on Taq polymerase [10]: minimal inhibition | Depression of cellular proliferation relative to vehicle only controls [11]: greater than 50% | Effect on expression of TERT, β-catenin and cyclin D1 (western blot) [12]: nearly eliminated
